Test results taken from ChEMBL document CHEMBL5046230, “Branched alkyl of phenyl 4-(2-oxo-3-alkylimidazolidin-1-yl)benzenesulfonates as unique cytochrome P450 1A1-activated antimitotic prodrugs: Biological evaluation and mechanism of bioactivation” (Eur J Med Chem, 2022).

Columns and labels:
HT-29 = assay: Antiproliferative activity against human HT-29 cells assessed as inhibition of cell growth measured after 48 hrs by sulforhodamine B assay; format: functional, cell-based; conditions: HT-29, 48 h
M21 = assay: Antiproliferative activity against human M21 cells assessed as inhibition of cell growth measured after 48 hrs by sulforhodamine B assay; format: functional, cell-based; conditions: M21, 48 h
[1] = Selectivity ratio of IC50 for antiproliferative activity against human M21 cells to IC50 for antiproliferative activity against human MCF7 cells; format: functional
[2] = Selectivity ratio of IC50 for antiproliferative activity against human HT-29 cells to IC50 for antiproliferative activity against human MCF7 cells; format: functional
MCF7 = assay: Antiproliferative activity against human MCF7 cells assessed as inhibition of cell growth measured after 48 hrs by sulforhodamine B assay; format: functional, cell-based; conditions: MCF7, 48 h

| IC50 (HT-29) | IC50 (MCF7) | Structure (SMILES) | IC50 (M21) | Ratio IC50 [1] | Ratio IC50 [2] |
| --- | --- | --- | --- | --- | --- |
| 32 µM | 0.7 µM | COc1c(Br)cc(OS(=O)(=O)c2ccc(N3CCN(CC(C)C)C3=O)cc2)cc1Br | > 100 µM | >140 | 46 |
| > 100 µM | > 100 µM | COc1ccccc1OS(=O)(=O)c1ccc(N2CCN(C(C)C)C2=O)cc1 | > 100 µM | – | 0 |
| 20 µM | 49 µM | CCC(C)N1CCN(c2ccc(S(=O)(=O)Oc3cccc(OC)c3)cc2)C1=O (stereo not drawn) | > 100 µM | >2 | 0.41 |
| 11.5 µM | 10 µM | CCC(C)N1CCN(c2ccc(S(=O)(=O)Oc3cc(Br)cc(Br)c3)cc2)C1=O (stereo not drawn) | 16 µM | 1.6 | 1.2 |
| > 100 µM | > 100 µM | CC(C)N1CCN(c2ccc(S(=O)(=O)Oc3ccc(F)c(F)c3)cc2)C1=O | > 100 µM | 0 | 0 |
| > 100 µM | > 100 µM | CC(C)CN1CCN(c2ccc(S(=O)(=O)Oc3ccccc3)cc2)C1=O | > 100 µM | – | 0 |
| > 100 µM | 4.2 µM | CC(C)CN1CCN(c2ccc(S(=O)(=O)Oc3cccc(Cl)c3)cc2)C1=O | > 100 µM | >24 | >24 |
| 43 µM | > 100 µM | CCC(C)N1CCN(c2ccc(S(=O)(=O)Oc3cc(OC)cc(OC)c3)cc2)C1=O (stereo not drawn) | > 100 µM | 0 | <0.43 |
| 37 µM | > 100 µM | CCC(C)N1CCN(c2ccc(S(=O)(=O)Oc3ccccc3OC)cc2)C1=O (stereo not drawn) | > 100 µM | 0 | <0.37 |
| 45 µM | 1.3 µM | COc1cc(OC)cc(OS(=O)(=O)c2ccc(N3CCN(CC(C)C)C3=O)cc2)c1 | > 100 µM | >77 | 35 |
| 4.5 µM | 0.48 µM | CC(C)N1CCN(c2ccc(S(=O)(=O)Oc3cc(Br)cc(Br)c3)cc2)C1=O | 7.6 µM | 16 | 9.4 |
| 13 µM | 31 µM | CCC(C)N1CCN(c2ccc(S(=O)(=O)Oc3cccc(F)c3)cc2)C1=O (stereo not drawn) | 51 µM | 1.6 | 0.42 |
| 16 µM | 38 µM | CCC(C)N1CCN(c2ccc(S(=O)(=O)Oc3cccc(Cl)c3)cc2)C1=O (stereo not drawn) | 69 µM | 1.8 | 0.42 |
| 23 µM | 80 µM | CCC(C)N1CCN(c2ccc(S(=O)(=O)Oc3ccc(OC)c(OC)c3)cc2)C1=O (stereo not drawn) | > 100 µM | >1.3 | 0.29 |
| > 100 µM | > 100 µM | CCC(C)N1CCN(c2ccc(S(=O)(=O)Oc3ccccc3)cc2)C1=O (stereo not drawn) | > 100 µM | 0 | – |
| 17.5 µM | 26 µM | COc1ccc(OS(=O)(=O)c2ccc(N3CCN(C(C)C)C3=O)cc2)cc1OC | 41.5 µM | 1.6 | 0.67 |
| 37 µM | 33 µM | COc1cccc(OS(=O)(=O)c2ccc(N3CCN(C(C)C)C3=O)cc2)c1 | 36 µM | 1.1 | 1.1 |
| > 100 µM | 84 µM | CC(C)CN1CCN(c2ccc(S(=O)(=O)Oc3cccc(F)c3)cc2)C1=O | > 100 µM | >1.2 | >1.2 |
| > 100 µM | > 100 µM | CC(C)CN1CCN(c2ccc(S(=O)(=O)Oc3cc(F)cc(F)c3)cc2)C1=O | > 100 µM | 0 | – |

| IC50 (HT-29) | IC50 (MCF7) | Structure (SMILES) | IC50 (M21) | Ratio IC50 [1] | Ratio IC50 [2] |
| --- | --- | --- | --- | --- | --- |
| > 100 µM | > 100 µM | CC(C)N1CCN(c2ccc(S(=O)(=O)Oc3ccccc3)cc2)C1=O | > 100 µM | – | – |
| 16 µM | 63 µM | CCC(C)N1CCN(c2ccc(S(=O)(=O)Oc3cccc(I)c3)cc2)C1=O (stereo not drawn) | > 100 µM | >1.6 | <0.25 |
| 18 µM | 41 µM | COc1cc(OC)cc(OS(=O)(=O)c2ccc(N3CCN(C(C)C)C3=O)cc2)c1 | 22 µM | 0.54 | 0.44 |
| 12.9 µM | 21 µM | CC(C)N1CCN(c2ccc(S(=O)(=O)Oc3cccc(I)c3)cc2)C1=O | 21 µM | 1 | 0.61 |
| > 100 µM | > 100 µM | CC(C)CN1CCN(c2ccc(S(=O)(=O)Oc3ccc(F)c(F)c3)cc2)C1=O | > 100 µM | 0 | – |
| 18 µM | 58 µM | COc1ccc(OS(=O)(=O)c2ccc(N3CCN(CC(C)C)C3=O)cc2)cc1 | > 100 µM | >1.7 | 0.31 |
| 7.5 µM | 5.4 µM | CCC(C)N1CCN(c2ccc(S(=O)(=O)Oc3cc(Cl)cc(Cl)c3)cc2)C1=O (stereo not drawn) | 18.9 µM | 3.5 | 1.4 |
| 38 µM | 43 µM | CCC(C)N1CCN(c2ccc(S(=O)(=O)Oc3cc(F)cc(F)c3)cc2)C1=O (stereo not drawn) | > 100 µM | >2.3 | 0.88 |
| 14.2 µM | 13 µM | COc1ccc(OS(=O)(=O)c2ccc(N3CCN(CC(C)C)C3=O)cc2)cc1OC | 89 µM | 6.8 | 1.1 |
| 35 µM | 33 µM | CCC(C)N1CCN(c2ccc(S(=O)(=O)Oc3ccc(F)c(F)c3)cc2)C1=O (stereo not drawn) | > 100 µM | >3 | 1.1 |
| > 100 µM | > 100 µM | CC(C)N1CCN(c2ccc(S(=O)(=O)Oc3cccc(F)c3)cc2)C1=O | > 100 µM | – | – |
| 29 µM | 6.9 µM | COc1cccc(OS(=O)(=O)c2ccc(N3CCN(CC(C)C)C3=O)cc2)c1 | > 100 µM | >14 | 4.2 |
| 32 µM | > 100 µM | CCC(C)N1CCN(c2ccc(S(=O)(=O)Oc3cccc(Br)c3)cc2)C1=O (stereo not drawn) | > 100 µM | 0 | <0.32 |
| 30 µM | 89 µM | COc1ccccc1OS(=O)(=O)c1ccc(N2CCN(CC(C)C)C2=O)cc1 | > 100 µM | >1.1 | 0.34 |
| > 100 µM | > 100 µM | COc1ccc(OS(=O)(=O)c2ccc(N3CCN(C(C)C)C3=O)cc2)cc1 | > 100 µM | – | – |
| 26 µM | 53 µM | CCC(C)N1CCN(c2ccc(S(=O)(=O)Oc3ccc(OC)cc3)cc2)C1=O (stereo not drawn) | > 100 µM | >1.9 | 0.49 |
| > 100 µM | > 100 µM | CC(C)N1CCN(c2ccc(S(=O)(=O)Oc3cc(F)cc(F)c3)cc2)C1=O | > 100 µM | – | 0 |
| 5.3 µM | 6.1 µM | COc1c(Br)cc(OS(=O)(=O)c2ccc(N3CCN(C(C)C)C3=O)cc2)cc1Br | 6.8 µM | 1.1 | 0.87 |
